Experiments:
Assay in all cases: relative viability (nuclei count vs DMSO), 5 days (fraction); higher = more cells survive
[1] = compound: Cn1c(Nc2ccc(C(F)(F)F)cc2)nc2cc(Oc3ccnc(-c4ncc(C(F)(F)F)[nH]4)c3)ccc21 [RAF265] + COc1cc2c(Oc3ccc(NC(=O)C4(C(=O)Nc5ccc(F)cc5)CC4)cc3F)ccnc2cc1OCCCN1CCOCC1 [Foretinib] (partner 0.25 µM)
Method in brief: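 Relative viability was taken as the ratio of nuclei in treated wells to nuclei in vehicle wells. Lung cancer cell lines in 1536-well plates received compounds by pin tool one day after seeding, either one drug alone or a fixed anchor-drug dose plus five library-drug doses (not always all listed) in √10 steps. Nuclei were counted on 4× images after 5 days of treatment, and values are medians of duplicate plates.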

[2] = compound: C1=CC=C2C(=C1)C=CC(=C2SSC3=C(C=CC4=CC=CC=C43)O)O [IPA-3]
Method in brief: (§1)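 Viability is treated-well nuclei as a fraction of vehicle-well nuclei, reported as the median across plates. Before counting, lung cancer cell lines were kept overnight at 37 °C in 1536-well plates, pinned with five √10-spaced library-drug doses on vehicle-anchored plates, and left 5 days without medium change, then fixed, permeabilised and Hoechst-stained in one step, imaged at 4× and counted by MetaXpress. A plate passed only if control CV was below 25% and at least one doubling occurred.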

[3] = compound: Cc1ccc(-n2nc(C(C)(C)C)cc2NC(=O)Nc2ccc(OCCN3CCOCC3)c3ccccc23)cc1 [Doramapimod]
Method in brief: as §1

[4] = compound: Cn1c(Nc2ccc(C(F)(F)F)cc2)nc2cc(Oc3ccnc(-c4ncc(C(F)(F)F)[nH]4)c3)ccc21 [RAF265]
Method in brief: as §1

| Cell Line | relative viability ([1]; first compound 0.01 µM) | relative viability ([1]; first compound 0.03162 µM) | relative viability ([1]; first compound 0.1 µM) | relative viability ([1]; first compound 0.3162 µM) | relative viability ([1]; first compound 1 µM) | relative viability ([2]; 0.2 µM) | relative viability ([2]; 0.6325 µM) | relative viability ([2]; 2 µM) | relative viability ([2]; 6.325 µM) | relative viability ([2]; 20 µM) | relative viability ([3]; 0.02 µM) | relative viability ([3]; 0.06325 µM) | relative viability ([3]; 0.2 µM) | relative viability ([3]; 0.6325 µM) | relative viability ([3]; 2 µM) | relative viability ([4]; 0.01 µM) | relative viability ([4]; 0.03162 µM) | relative viability ([4]; 0.1 µM) | relative viability ([4]; 0.3162 µM) | relative viability ([4]; 1 µM) |
| --- | --- | --- | --- | --- | --- | --- | --- | --- | --- | --- | --- | --- | --- | --- | --- | --- | --- | --- | --- | --- |
| NCI-H1666 | 1.11 | 0.936 | 0.985 | 1.01 | 0.81 | 1.15 | 0.978 | 1.02 | 1.08 | 1.12 | 1.06 | 1.03 | 1 | 1.11 | 1.01 | 1.07 | 1.01 | 1.01 | 1.01 | 0.795 |
| NCI-H2170 | 1.05 | 0.971 | 0.978 | 0.805 | 0.88 | 1.08 | 1.01 | 0.999 | 0.878 | 0.988 | 0.923 | 0.98 | 0.996 | 0.972 | 0.943 | 0.957 | 0.896 | 0.877 | 0.755 | 0.716 |
| NCI-H2342 | 1.11 | 1.06 | 1.12 | 0.992 | 0.968 | 1.07 | 1.08 | 0.975 | 1.11 | 1.14 | 1.05 | 0.918 | 0.998 | 1.09 | 0.933 | 0.937 | 1.06 | 1.04 | 0.895 | 0.85 |
| LCLC-97TM1 | 0.993 | 0.811 | 0.967 | 0.811 | 0.448 | 1.04 | 0.868 | 0.851 | 0.908 | 0.981 | 0.916 | 1.04 | 0.961 | 0.811 | 0.86 | 1.04 | 0.899 | 0.531 | 0.637 | 0.418 |
| NCI-H1299 | 1.12 | 0.863 | 1.08 | 1.07 | 0.749 | 1.1 | 0.995 | 1.02 | 0.94 | 0.98 | 1.04 | 1.02 | 1.02 | 1.05 | 0.967 | 1.08 | 0.97 | 0.961 | 0.793 | 0.616 |
| NCI-H3122 | 0.963 | 1 | 1 | 0.953 | 0.635 | 1.02 | 0.98 | 0.981 | 1.04 | 0.999 | 0.995 | 1 | 0.995 | 0.989 | 1 | 1.02 | 1.1 | 1.05 | 0.885 | 0.943 |
| NCI-H1395 | 0.915 | 1.02 | 0.972 | 0.972 | 0.697 | 1.04 | 0.947 | 0.879 | 0.918 | 1.04 | 1.01 | 1.18 | 1.07 | 0.94 | 0.831 | 1.03 | 0.866 | 0.899 | 0.774 | 0.689 |
| NCI-H2009 | 1.29 | 1.25 | 1.14 | 1.1 | 0.658 | 1.17 | 0.969 | 1.01 | 0.984 | 0.874 | 1.03 | 1.14 | 1.11 | 1.17 | 1.02 | 0.997 | 0.922 | 0.907 | 0.866 | 0.649 |
| NCI-H1651 | 0.86 | 0.808 | 0.75 | 0.844 | 0.584 | 1.18 | 0.952 | 1.03 | 1.02 | 1.08 | 0.938 | 0.934 | 1.03 | 1.1 | 0.968 | 1 | 1 | 0.961 | 0.901 | 0.785 |
| HARA | 0.573 | 0.777 | 0.931 | 0.53 | 0.38 | 1.28 | 0.977 | 1.04 | 1.05 | 1.21 | 1.02 | 0.948 | 0.811 | 1.19 | 0.754 | 1.07 | 0.982 | 0.949 | 0.693 | 0.584 |
| NCI-H1944 | 0.939 | 0.913 | 0.906 | 0.762 | 0.461 | 1.05 | 0.897 | 0.953 | 1.11 | 0.955 | 0.891 | 0.994 | 0.935 | 1.19 | 0.878 | 1.06 | 1.13 | 0.972 | 0.755 | 0.667 |
| NCI-H2347 | 0.93 | 0.971 | 0.81 | 0.592 | 0.803 | 1.21 | 0.962 | 1 | 1.01 | 1.1 | 1.05 | 0.973 | 1.01 | 0.964 | 0.959 | 1.16 | 0.975 | 0.984 | 0.822 | 0.528 |
| 201T | 1.1 | 1.1 | 1.09 | 1.21 | 0.945 | 0.998 | 0.975 | 0.958 | 0.993 | 1.09 | 1 | 1.02 | 0.975 | 1.15 | 0.957 | 1.04 | 0.99 | 1.02 | 0.977 | 0.992 |
| NCI-H1648 | – | – | – | – | – | 1.25 | 0.889 | 1.02 | 0.65 | 0.793 | 0.925 | 1.19 | 0.898 | 0.835 | 0.719 | 0.936 | 0.842 | 0.919 | 0.593 | 0.589 |
| NCI-H1792 | – | – | – | – | – | 1.32 | 0.794 | 0.952 | 0.809 | 1.08 | 0.954 | 0.869 | 0.971 | 0.913 | 0.715 | 0.893 | 0.73 | 0.648 | 0.246 | 0.249 |
| HCC-44 | – | – | – | – | – | 0.953 | 0.922 | 0.998 | 0.899 | 0.968 | 1.03 | 1.1 | 1.1 | 0.84 | 0.983 | 0.971 | 0.919 | 1.02 | 1.05 | 0.992 |
| NCI-H522 | – | – | – | – | – | 1.05 | 0.889 | 0.978 | 1.07 | 1.08 | 0.946 | 0.978 | 0.79 | 0.925 | 0.86 | 1.15 | 1.1 | 0.941 | 0.812 | 0.961 |

— the supplement of paper PMC10307832
